pIC50: −log10 of the molar value.
Tested on: Plasmodium berghei
Assay: Luciferase/luciferin-expressing antifolate-resistant parasites were used to infect a culture of HepG2 cells that were pre-incubated with compounds. Infected hepatocytes emit light due to the luciferase reaction. Assay results are presented as the percent inhibition of light emission compared to control. […]
Type: functional
Conditions: sporozoite; for IC90: read-out: LUCIFERASE INFECTION ASSAY - IC90

| SMILES | IC90 [µM] | other results |
| --- | --- | --- |
| N=C(NS(=O)(=O)c1cc(C(F)(F)F)cc(C(F)(F)F)c1)c1ccc(Cl)cc1 | > 7.66 | pIC50 (HEPG2TOX_HILL_SLOPE 0.0636, HEPG2TOX_R_SQUARED 0.0519, read-out: LUCIFERASE INFECTION ASSAY - IC50): < 5.12 |
| Cc1ncc(CO)c(/C=N/NC(=S)Nc2ccc(C(C)C)cc2)c1O | > 10 | pIC50 (HEPG2TOX_HILL_SLOPE 0.0695, HEPG2TOX_R_SQUARED 0.0364, read-out: LUCIFERASE INFECTION ASSAY - IC50): < 5.00 |
| COc1ccc(C(N)c2csc(NC(=O)c3cc(C(C)(C)C)nn3Cc3ccccc3)n2)cc1 (stereo unspecified) | 4.86 | pIC50 (HEPG2TOX_HILL_SLOPE 0.0688, HEPG2TOX_R_SQUARED 0.351, PBLUC_HILL_SLOPE 6.29, PBLUC_R_SQUARED 0.765, read-out: LUCIFERASE INFECTION ASSAY - IC50): 5.46 |
| CCN(C(=O)CN(Cc1ccccc1)S(=O)(=O)/C=C/c1ccccc1)c1cccc2ccccc12 | > 10 | pIC50 (HEPG2TOX_HILL_SLOPE 0.0751, HEPG2TOX_R_SQUARED 0.254, read-out: LUCIFERASE INFECTION ASSAY - IC50): < 5.00 |
| COCC(C)n1c(C)cc(C(=O)COC(=O)c2cccc(C)c2C)c1C (stereo unspecified) | 6.95 | pIC50 (HEPG2TOX_HILL_SLOPE 0.0806, HEPG2TOX_R_SQUARED 0.082, PBLUC_HILL_SLOPE 4.05, PBLUC_R_SQUARED 0.617, read-out: LUCIFERASE INFECTION ASSAY - IC50): 5.39 |
| Cc1cc(C(=O)COC(=O)c2ccccc2OCc2ccccc2Cl)c(C)n1CC1CCCO1 (stereo unspecified) | > 10 | pIC50 (HEPG2TOX_HILL_SLOPE 0.0867, HEPG2TOX_R_SQUARED 0.214, read-out: LUCIFERASE INFECTION ASSAY - IC50): < 5.00 |
| CC(C)[C@H](NC(=O)c1ccc(Cl)cc1)C(=O)OCC(=O)NCCc1ccc(S(N)(=O)=O)cc1 | > 10 | pIC50 (HEPG2TOX_HILL_SLOPE 0.118, HEPG2TOX_R_SQUARED 0.186, PBLUC_HILL_SLOPE 0.264, PBLUC_R_SQUARED 0.0178, read-out: LUCIFERASE INFECTION ASSAY - IC50): < 5.00 |
| CNc1snc(C)c1C(=O)N(C)Cc1ccc(OC(F)(F)F)cc1 | 2.72 | pIC50 (HEPG2TOX_HILL_SLOPE 0.114, HEPG2TOX_R_SQUARED 0.0245, PBLUC_HILL_SLOPE 2.54, PBLUC_R_SQUARED 0.592, read-out: LUCIFERASE INFECTION ASSAY - IC50): 5.94 |
| Cn1ccc2cc(-c3cnc4cnc(-c5ccc(C(=O)N6CCOCC6)cc5)cn34)ccc21 | > 7.54 | pIC50 (HEPG2TOX_HILL_SLOPE 0.0832, HEPG2TOX_R_SQUARED 0.45, PBLUC_HILL_SLOPE 3.74, PBLUC_R_SQUARED 0.552, read-out: LUCIFERASE INFECTION ASSAY - IC50): 5.27 |
| Cc1cc(C)c(NC(=O)CN(C)C2CC(=O)N(C)C2=O)c(C)c1 (stereo unspecified) | > 10 | pIC50 (HEPG2TOX_HILL_SLOPE 0.116, HEPG2TOX_R_SQUARED 0.0867, read-out: LUCIFERASE INFECTION ASSAY - IC50): < 5.00 |
| Cc1ccc2nc(NC(=O)C3CCCCC3)c(C(=O)NC3CCCCC3)n2c1 | > 8.63 | pIC50 (HEPG2TOX_HILL_SLOPE 0.0875, HEPG2TOX_R_SQUARED 0.133, PBLUC_HILL_SLOPE 0.199, PBLUC_R_SQUARED 0.0366, read-out: LUCIFERASE INFECTION ASSAY - IC50): < 5.06 |
| COc1ccccc1-n1c(COc2ccccc2-c2ccccc2)nnc1SC(C(=O)NC(N)=O)C(C)C (stereo unspecified) | > 10 | pIC50 (HEPG2TOX_HILL_SLOPE 0.0773, HEPG2TOX_R_SQUARED 0.0989, read-out: LUCIFERASE INFECTION ASSAY - IC50): < 5.00 |
| OCc1ccc(-c2cn3c(-c4ccccc4)cnc3cn2)cc1 | > 11 | pIC50 (HEPG2TOX_HILL_SLOPE 0.117, HEPG2TOX_R_SQUARED 0.27, read-out: LUCIFERASE INFECTION ASSAY - IC50): < 4.96 |
| Cc1cccc(Nc2ccccc2C(=O)Oc2ccc(Cl)cc2Cc2ccccc2)c1C | > 10 | pIC50 (HEPG2TOX_HILL_SLOPE 0.105, HEPG2TOX_R_SQUARED 0.052, read-out: LUCIFERASE INFECTION ASSAY - IC50): < 5.00 |
| CC(C)CN1CCC1(C(=O)NCc1cccc2ccccc12)c1ccccc1 (stereo unspecified) | > 8.86 | pIC50 (HEPG2TOX_HILL_SLOPE 0.125, HEPG2TOX_R_SQUARED 0.379, PBLUC_HILL_SLOPE 1.82, PBLUC_R_SQUARED 0.397, read-out: LUCIFERASE INFECTION ASSAY - IC50): 5.25 |
| O=C1NC(=S)S/C1=C\c1ccc(OCc2ccc(Cl)c(Cl)c2)cc1 | > 8.33 | pIC50 (HEPG2TOX_HILL_SLOPE 0.0732, HEPG2TOX_R_SQUARED 0.0803, read-out: LUCIFERASE INFECTION ASSAY - IC50): < 5.08 |
| O=C(/C=C/c1ccccc1)N1CCN(S(=O)(=O)c2ccccc2C(F)(F)F)CC1 | 6.57 | pIC50 (HEPG2TOX_HILL_SLOPE 0.114, HEPG2TOX_R_SQUARED 0.819, PBLUC_HILL_SLOPE 7.50, 16.5, PBLUC_R_SQUARED 0.237, 0.462, read-out: LUCIFERASE INFECTION ASSAY - IC50): 5.26 |

| SMILES | IC90 [µM] | other results |
| --- | --- | --- |
| O=C(CN1C(=O)S/C(=C\c2ccco2)C1=O)c1ccc([N+](=O)[O-])cc1 | > 10 | pIC50 (HEPG2TOX_HILL_SLOPE 0.122, HEPG2TOX_R_SQUARED 0.0589, read-out: LUCIFERASE INFECTION ASSAY - IC50): < 5.00 |
| N#Cc1ncn(CC(=O)NCC2(N3CCOCC3)CCCCC2)n1 | > 10 | pIC50 (HEPG2TOX_HILL_SLOPE 0.0925, HEPG2TOX_R_SQUARED 0.157, read-out: LUCIFERASE INFECTION ASSAY - IC50): < 5.00 |
| Cc1cc(S(=O)(=O)c2ccc(OC(=O)CC3CCCC3)c(C)c2)ccc1OC(=O)CC1CCCC1 | > 10 | pIC50 (HEPG2TOX_HILL_SLOPE 0.0998, HEPG2TOX_R_SQUARED 0.18, PBLUC_HILL_SLOPE 0.103, PBLUC_R_SQUARED 0.0204, read-out: LUCIFERASE INFECTION ASSAY - IC50): < 5.00 |
| O=C1CC(c2c(F)cccc2Cl)CC2=Nc3ccccc3NC(c3ccc(Cl)cc3)C12 (stereo unspecified) | > 7.28 | pIC50 (HEPG2TOX_HILL_SLOPE 0.118, HEPG2TOX_R_SQUARED 0.0386, read-out: LUCIFERASE INFECTION ASSAY - IC50): < 5.14 |
| O=C(NCCSCc1ccc(Cl)cc1Cl)c1cccs1 | 3.51 | pIC50 (HEPG2TOX_HILL_SLOPE 0.0561, HEPG2TOX_R_SQUARED 0.0467, PBLUC_HILL_SLOPE 2.24, PBLUC_R_SQUARED 0.817, read-out: LUCIFERASE INFECTION ASSAY - IC50): 5.88 |
| Cc1cccc(C(C)C)c1NC(=O)C(C)Sc1nc2scc(-c3ccccc3Cl)c2c(=O)n1C (stereo unspecified) | 1.19 | pIC50 (HEPG2TOX_HILL_SLOPE 0.0632, HEPG2TOX_R_SQUARED 0.325, PBLUC_HILL_SLOPE 16, PBLUC_R_SQUARED 0.687, read-out: LUCIFERASE INFECTION ASSAY - IC50): 5.99 |
| O=C(Nc1cccc(C(F)(F)F)c1)n1nccc1-c1cc(-c2ccccc2)no1 | 3.32 | pIC50 (HEPG2TOX_HILL_SLOPE 0.0838, HEPG2TOX_R_SQUARED 0.0659, PBLUC_HILL_SLOPE 13.2, PBLUC_R_SQUARED 0.221, read-out: LUCIFERASE INFECTION ASSAY - IC50): 5.55 |
| CCOc1c(Br)cnn(-c2ccc(C)cc2)c1=O | > 10.7 | pIC50 (HEPG2TOX_HILL_SLOPE 0.0619, HEPG2TOX_R_SQUARED 0.0842, PBLUC_HILL_SLOPE 9.69, PBLUC_R_SQUARED 0.342, read-out: LUCIFERASE INFECTION ASSAY - IC50): < 4.97 |
| CC1CCCC(N=C2NN=C(c3c[nH]c(C(=O)N4CCCC4)c3)CS2)C1C (stereo unspecified) | > 10 | pIC50 (HEPG2TOX_HILL_SLOPE 0.0793, HEPG2TOX_R_SQUARED 0.0179, read-out: LUCIFERASE INFECTION ASSAY - IC50): < 5.00 |
| Cc1ccc(Cn2ncc3c(C(=O)N4CCN(c5ncccn5)CC4)cc(C)nc32)cc1 | > 10 | pIC50 (HEPG2TOX_HILL_SLOPE 0.12, HEPG2TOX_R_SQUARED 0.204, PBLUC_HILL_SLOPE 1.61, PBLUC_R_SQUARED 0.516, read-out: LUCIFERASE INFECTION ASSAY - IC50): 5.08 |
| COc1ccccc1-c1ccc2ncc(-c3cccnc3)n2n1 | 4.41 | pIC50 (HEPG2TOX_HILL_SLOPE 0.11, HEPG2TOX_R_SQUARED 0.0747, PBLUC_HILL_SLOPE 11.9, PBLUC_R_SQUARED 0.526, read-out: LUCIFERASE INFECTION ASSAY - IC50): 5.44 |
| COc1ccc(CN2CCN(c3nc4c(Cl)c(C)nn4c4ccccc34)CC2)cc1OC | > 10 | pIC50 (HEPG2TOX_HILL_SLOPE 0.0984, HEPG2TOX_R_SQUARED 0.313, PBLUC_HILL_SLOPE 1.53, PBLUC_R_SQUARED 0.0755, read-out: LUCIFERASE INFECTION ASSAY - IC50): < 5.00 |
| Cc1ccc(N(CC(=O)Nc2ccc(Cl)cc2)S(C)(=O)=O)cc1Cl | > 8.52 | pIC50 (HEPG2TOX_HILL_SLOPE 0.0682, HEPG2TOX_R_SQUARED 0.0747, PBLUC_HILL_SLOPE 6.57, PBLUC_R_SQUARED 0.017, read-out: LUCIFERASE INFECTION ASSAY - IC50): < 5.07 |
| O=C(COc1ccc(F)cc1C(=O)c1cnn(-c2ccccc2)c1)Nc1ccc(Br)cc1F | > 10 | pIC50 (HEPG2TOX_HILL_SLOPE 0.0675, HEPG2TOX_R_SQUARED 0.0289, PBLUC_HILL_SLOPE 1.95, PBLUC_R_SQUARED 0.148, read-out: LUCIFERASE INFECTION ASSAY - IC50): < 5.00 |
| O=C(CC1Sc2ccccc2NC1=O)NCCCn1ccc2ccccc21 (stereo unspecified) | 3.47 | pIC50 (HEPG2TOX_HILL_SLOPE 0.0908, HEPG2TOX_R_SQUARED 0.322, PBLUC_HILL_SLOPE 2.29, PBLUC_R_SQUARED 0.881, read-out: LUCIFERASE INFECTION ASSAY - IC50): 5.88 |
| Cc1nc(NCc2ccc(Cl)cc2)c2cc(-c3ccccc3)sc2n1 | > 10 | pIC50 (HEPG2TOX_HILL_SLOPE 0.0996, HEPG2TOX_R_SQUARED 0.0438, PBLUC_HILL_SLOPE 16.2, PBLUC_R_SQUARED 0.0193, read-out: LUCIFERASE INFECTION ASSAY - IC50): 5.03 |

Source: ChEMBL document CHEMBL4483862, “Open-source discovery of chemical leads for next-generation chemoprotective antimalarials” (2018)
